Where two headings read alike, the source gives them in different places. Blank lines part the entries; values can stand above or below the compound they belong to.
Legend:
Test in all cases: BROMOscan ligand-binding assay
[1] = molecular target: T1, BRD9 (Homo sapiens, UniProt Q9H8M2)
T1 sequence (Q9H8M2 136-240 limits assumed): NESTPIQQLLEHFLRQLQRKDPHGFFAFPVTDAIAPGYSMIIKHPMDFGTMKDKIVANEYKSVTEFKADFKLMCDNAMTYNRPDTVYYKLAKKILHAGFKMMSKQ
Description: (§1) BROMOscan is a binding assay based on the well-known KINOMEscan technology. This assay measures the binding of a DNA-tagged bromodomain to an immobilized BRD ligand. If an inhibitor is present, it will compete with the bromodomain binding to the immobilized ligand, resulting in reduction of a quantitative PCR (qPCR) signal in a dose-dependent manner.

[2] = molecular target: BRD4(1) (Homo sapiens, UniProt O60885)
Description: as §1

[3] = molecular target: BRDT(2) (Homo sapiens, UniProt Q58F21)
Description: as §1

[4] = molecular target: BRD2(2) (Homo sapiens, UniProt P25440)
Description: as §1

[5] = molecular target: T2, TAF1(2) (Homo sapiens, UniProt P21675)
T2 sequence (P21675 1519-1628 limits assumed): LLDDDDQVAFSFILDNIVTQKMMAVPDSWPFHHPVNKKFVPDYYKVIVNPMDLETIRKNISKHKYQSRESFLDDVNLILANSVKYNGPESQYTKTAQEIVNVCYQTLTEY
Description: as §1

[6] = molecular target: BRD3(1,2) (Homo sapiens, UniProt Q15059)
Description: as §1

[7] = molecular target: T3, TRIM24(PHD,BRD) (Homo sapiens, UniProt O15164)
T3 sequence (O15164 824-1006 limits assumed): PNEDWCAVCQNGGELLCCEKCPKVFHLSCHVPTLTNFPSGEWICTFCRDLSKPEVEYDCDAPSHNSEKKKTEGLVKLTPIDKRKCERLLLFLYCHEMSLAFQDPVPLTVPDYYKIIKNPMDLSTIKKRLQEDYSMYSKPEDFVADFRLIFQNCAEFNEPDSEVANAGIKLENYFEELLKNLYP
Description: as §1

[8] = molecular target: CREBBP (Homo sapiens, UniProt Q92793)
Description: as §1

[9] = molecular target: SMARCA4 (Homo sapiens, UniProt P51532); details: SMARCA4
Description: as §1

[10] = molecular target: BRD4(1,2) (Homo sapiens, UniProt O60885)
Description: as §1

[11] = molecular target: T4, BAZ1B (Homo sapiens, UniProt Q9UIG0)
T4 sequence (Q9UIG0 1339-1443 limits assumed): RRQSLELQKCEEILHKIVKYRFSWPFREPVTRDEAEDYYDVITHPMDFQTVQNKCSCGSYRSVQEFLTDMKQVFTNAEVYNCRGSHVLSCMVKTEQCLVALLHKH
Description: as §1

[12] = molecular target: SMARCA2(iso.A) (Homo sapiens, UniProt P51531)
Description: as §1

[13] = KD (BROMOscan), sheet prints no unit (nM)

Chain of SMARCA2(iso.A) (P51531 1378-1506 limits assumed): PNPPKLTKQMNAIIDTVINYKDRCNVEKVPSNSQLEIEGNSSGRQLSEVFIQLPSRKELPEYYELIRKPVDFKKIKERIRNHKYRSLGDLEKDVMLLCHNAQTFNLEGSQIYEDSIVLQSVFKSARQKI
Chain of SMARCA4 (P51532 1453-1564 limits assumed): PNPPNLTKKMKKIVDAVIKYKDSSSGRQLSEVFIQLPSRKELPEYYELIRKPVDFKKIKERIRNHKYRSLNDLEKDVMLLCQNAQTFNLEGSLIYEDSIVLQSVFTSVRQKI
Chain of BRD2(2) (P25440 344-453 limits assumed): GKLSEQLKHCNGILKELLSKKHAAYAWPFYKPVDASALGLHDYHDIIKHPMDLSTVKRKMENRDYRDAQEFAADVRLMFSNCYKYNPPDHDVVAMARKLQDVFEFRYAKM
Chain of BRD3(1,2) (Q15059 24-416 limits assumed): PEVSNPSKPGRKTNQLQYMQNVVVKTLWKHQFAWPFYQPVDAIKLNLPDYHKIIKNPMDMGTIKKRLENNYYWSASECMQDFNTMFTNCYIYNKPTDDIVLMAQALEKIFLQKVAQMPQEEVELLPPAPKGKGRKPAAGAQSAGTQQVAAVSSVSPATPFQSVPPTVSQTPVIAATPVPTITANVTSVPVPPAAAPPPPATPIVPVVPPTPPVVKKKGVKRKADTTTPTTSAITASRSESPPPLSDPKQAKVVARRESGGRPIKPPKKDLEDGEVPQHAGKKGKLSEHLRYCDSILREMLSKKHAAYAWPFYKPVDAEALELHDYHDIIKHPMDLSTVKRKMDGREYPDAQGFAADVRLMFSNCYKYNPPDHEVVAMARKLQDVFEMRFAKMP
Chain of CREBBP (Q92793 1085-1192 limits assumed): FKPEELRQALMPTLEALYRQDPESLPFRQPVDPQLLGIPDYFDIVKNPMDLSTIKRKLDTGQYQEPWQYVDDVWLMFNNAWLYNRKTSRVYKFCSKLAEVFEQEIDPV

SMILES: COc1cc(C#N)ccc1S(=O)(=O)Nc1ccc2c(c1)cc(C)c(=O)n2C [NI 57]
Kd ([1]; BRD9): 160 nM
Kd ([2]; BRD4(1)): 3.3 µM
Kd ([3]; BRDT(2)): > 50000 nM
Kd ([4]; BRD2(2)): > 50 µM
Kd ([5]; TAF1(2)): 4.9 µM
Kd ([6]; BRD3(1,2)): 12000 nM
Kd ([7]; TRIM24(PHD,Bromo.)): 5600 nM
Kd ([8]; CREBBP): 13000 nM
Kd [9]: 41 µM
Kd ([10]; BRD4(1,2)): 15 µM

SMILES: CCCS(=O)(=O)c1nc(NC2CC2)cc(-c2ccc3c(ccn3C3CC(C)(C)NC(C)(C)C3)c2)n1 [NVS-CECR2-1]
Kd [1]: 2100 nM
Kd [2]: 21 µM
Kd [3]: > 30000 nM
Kd [4]: > 30 µM
Kd [5]: 2.1 µM
Kd [6]: > 30000 nM
Kd [7]: > 30000 nM
Kd [8]: > 30000 nM
Kd [10]: 12 µM

SMILES: O=C(C=CN1[C@H]2CC[C@@H]1c1ncnc(NC3CC3)c1C2)c1ccccc1O [PFI-3 D1]
Kd ([1]; BROMOscan, BRD9): > 30000 nM
Kd ([2]; BROMOscan, BRD4(1)): 27 µM
Kd ([3]; BROMOscan, BRDT(2)): > 30000 nM
Kd ([4]; BROMOscan, BRD2(2)): > 30 µM
Kd ([5]; BROMOscan, TAF1(2)): > 30 µM
Kd ([6]; BROMOscan, BRD3(1,2)): > 30000 nM
Kd ([7]; BROMOscan, TRIM24(PHD,Bromo.)): > 30000 nM
Kd ([8]; BROMOscan, CREBBP): > 30000 nM
Kd ([9]; BROMOscan): 0.046 µM
Kd ([10]; BROMOscan, BRD4(1,2)): > 30 µM

SMILES: COc1ccc(CCc2nc3cc(-c4c(C)noc4C)ccc3n2C[C@H](C)N2CCOCC2)cc1Cl [SGC-CBP30]
Kd ([1]; KD, BROMOscan, BRD9): 6100 nM
Kd [2]: 1.1 µM
Kd [12, 13]: > 30000 nM
Kd ([12]; KD, BROMOscan, SMARCA2(iso.A)): > 100000 nM
Kd [3, 13]: > 30000 nM
Kd ([3]; KD, BROMOscan, BRDT(2)): > 100000 nM
Kd [4]: 2.4 µM
Kd [5]: 3.1 µM
Kd ([6]; KD, BROMOscan, BRD3(1,2)): 1100 nM
Kd [11, 13]: > 30000 nM
Kd ([11]; KD, BROMOscan, BAZ1B): > 100000 nM
Kd ([7]; KD, BROMOscan, TRIM24(PHD,Bromo.)): 6500 nM
Kd [10]: 3.4 µM

SMILES: O=C(O)c1ccccc1O [Salicylic Acid]
Kd ([1]; KD, BRD9): > 1.4e+07 nM
Kd [2]: > 14000 µM
Kd ([12]; KD, SMARCA2(iso.A)): 950000 nM
Kd ([3]; KD, BRDT(2)): > 1.4e+07 nM
Kd [4]: > 14000 µM
Kd [5]: > 14000 µM
Kd ([11]; KD, BAZ1B): > 1.4e+07 nM
Kd ([7]; KD, TRIM24(PHD,Bromo.)): > 1.4e+07 nM
Kd ([8]; KD, CREBBP): > 1.4e+07 nM
Kd ([9]; KD): 320 µM
Kd [10]: > 14000 µM

More lines, now with the values ahead:

Kd ([1]; BRD9): 2900 nM
Kd ([3]; BRDT(2)): 22000 nM
Kd ([4]; BRD2(2)): 10 µM
Kd ([5]; TAF1(2)): 4.7 µM
Kd ([6]; BRD3(1,2)): 4900 nM
Kd ([7]; TRIM24(PHD,Bromo.)): 4500 nM
Kd ([8]; CREBBP): 45000 nM
Kd [9]: 16 µM
SMILES: COc1cc2c(cc1NS(=O)(=O)c1ccc(Br)cc1C)n(C)c(=O)n2C [OF-1]

Kd [1, 13]: > 30000 nM
Kd ([1]; KD, BRD9): > 100000 nM
Kd [3, 13]: > 30000 nM
Kd ([3]; KD, BRDT(2)): > 100000 nM
Kd [6, 13]: > 30000 nM
Kd ([6]; KD, BRD3(1,2)): > 100000 nM
Kd [11, 13]: > 30000 nM
Kd ([11]; KD, BAZ1B): > 100000 nM
Kd [7, 13]: > 30000 nM
Kd ([7]; KD, TRIM24(PHD,Bromo.)): > 100000 nM
Kd [8, 13]: > 30000 nM
Kd ([8]; KD, CREBBP): > 100000 nM
SMILES: O=C(C=CN1CC2CC1CN2c1ccccn1)c1ccccc1O (stereo not shown) [PFI-3]

Reference: PMC6478789, “A chemical toolbox for the study of bromodomains and epigenetic signaling” (Nature Communications, 2019)
